# Experimental data: patent US20250296953A1, “3,4-THIAZOLO-STEROIDS AND METHODS OF MAKING AND USING THE SAME” (Arkansas State University - Jonesboro, priority 2018, published 2025)
# Where two headings read alike, the source gives them in different places.
# Key:
# Test in all cases: Melanoma cytotoxicity assay (resazurin)
# Format in all cases: cell-based
# MALME-3M = conditions: human, 24 h
# Method: (§1) On day 1, the cell line trypsinized and centrifuged to form cell pellet. The pellet was diluted in media, then counted using Countess automated cell counter. Approximately 4000 cells (198 uL) per well plated in […]. A control well of 200 uL growth media was also prepared. Wells closest to plate perimeter were filled with 200 uL PBS to prevent inner well evaporation. The 96 well plates are incubated in 37° C. incubator at 5% CO2 for 24 hours.
# (§2) On day 2, compounds were added (in triplicate) along with DMSO/Dacarbazine controls (2 uL) added to bring wells to volume of 200 μL. The 96 well plates are incubated in 37° C. incubator at 5% CO2 for 24 hours.
# (§3) On day 3, 40 μL of 0.15 mg/ml reszurin solution added to wells. Samples were placed in a 37° C. incubator at 5% CO2 for 6 hours. Excitation and emission for fluorescence measured at 544 nm and 590 nm using BMG Labtech Fluostar Optima plate reader
# (§4) Percent viability determined by taking average of each triplicate well fluorescence and subtracting GM well reading to remove the background signal. This difference is then divided by the average of the negative control (DMSO) wells to determine percent viability.
# (§5) IC50s were determined by using cereal dilution of compound to determine viability. Viabilities and concentration of cells are analyzed in Graphpad Prism by creating sigmoidal curve graph, which will determine the IC50 concentration.
# (§6) We analyzed the ability of the thiazole-androstane derivatives to inhibit growth in various melanoma cell lines. The growth inhibition against melanoma cell lines of various compound is shown below in Tables 19 and 20. Inhibition results are reported as the IC50 concentration in μM of the indicated compound or as the percent viability […] of the indicated compound. NA=not available.
# LOX IMVI = conditions: for IC50: Homo sapiens; for IC50 / LOX-IMVI (% inhibition): LOX IMVI melanoma cells; for LOX-IMVI (% inhibition): 24 hours with compound, concentration not given
# Method: (§7) Cytotoxicity Assay: Melanoma cells (˜4000 cells in each well) were incubated in a 96 well plates at 37° C. in 5% CO2 for 24 hours. Compounds were added in triplicates and the plate was further incubated for 24 hours. DMSO and dacarbazine were added as technical and positive controls respectively. Next day resazurin was added and the plate was further incubated for 6 hours followed by reading the plate at 544 nm (excitation) and 590 nm (emission) using BMG Labtech Fluostar Optima plate reader. IC50 values were determined by using Graphpad Prism.
# as §1, §2, §3, §4, §5, §6
# SK-MEL-5 = conditions: for SK-MEL-5 (% viability): human, 24 h; for SK-MEL-5 (% inhibition): SK-MEL-5 melanoma cells, 24 hours with compound, resazurin, concentration not given
# Method: as §7, §1, §2, §3, §4, §5, §6
# SK-MEL-25 = conditions: for SK-MEL-25 (% viability): human, 24 h; for IC50: Homo sapiens; for SK-MEL-25 (% inhibition): 24 hours with compound, concentration not given
# Method: as §7, §1, §2, §3, §4, §5, §6
# SK-MEL-28 = conditions: for SK-MEL-28 (% viability): human, 24 h; for IC50: Homo sapiens, 24 hours; for IC50 / SK-MEL-28 (% inhibition): SK-MEL-28 melanoma cells, resazurin; for SK-MEL-28 (% inhibition): 24 hours with compound, concentration not given
# Method: as §7, §1, §2, §3, §4, §5, §6
# [1] = SK-MEL-25 melanoma cells, 24 hours, resazurin, read-out: SK-MEL-25 (IC50)
# [2] = SK-MEL-25 melanoma cells, resazurin
structure (smiles),measurement,setting,value
"C[C@]12CC[C@H]3[C@@H](CC=C4c5sc(NCCc6ccccc6)nc5CC[C@@]43C)[C@@H]1CC[C@@H]2O [IIIa.5, (1S,2R,13R,14S,17S,18S)-2,18-dimethyl-7-(2-phenylethylamino)-8-thia-6-azapentacyclo[11.7.0.02,10.05,9.014,18]icosa-5(9),6,10-trien-17-ol]",MALME-3M (% viability),MALME-3M,55.63%
same,IC50,LOX IMVI,11 µM
same,LOX-IMVI (% viability),"LOX IMVI; human, 24 h",10%
same,SK-MEL-5 (% viability),SK-MEL-5,3.49%
same,SK-MEL-25 (% viability),SK-MEL-25,9.39%
same,SK-MEL-28 (% viability),SK-MEL-28,4.28%
"C[C@]12CCc3nc(-c4ccc(O)cc4)sc3C1=CC[C@@H]1[C@@H]2CC[C@]2(C)C(=O)CC[C@@H]12 [II.4, (1S,2R,13R,14S,18S)-7-(4-hydroxy)-2,18-dimethyl-8-thia-6-azapentacyclo[11.7.0.02,10.05,9.014,18]icosa-5(9),7,10-trien-17-one]",LOX-IMVI (% inhibition),LOX IMVI; resazurin,16%
"C[C@]12CCc3sc(Nc4ccccc4Cl)nc3C1=CC[C@@H]1[C@@H]2CC[C@]2(C)C(=O)CC[C@@H]12 [IIa.11, (1S,2R,13R,14S,18S)-7-(2-chloroanilino)-2,18-dimethyl-6-thia-8-azapentacyclo[11.7.0.02,10.05,9.014,18]icosa-5(9),7,10-trien-17-one]",IC50,"LOX IMVI; 24 hours, resazurin",12 µM
same,SK-MEL-5 (% inhibition),SK-MEL-5,84%
same,IC50,SK-MEL-25; [1],9 µM
same,SK-MEL-25 (% inhibition),SK-MEL-25; [2],96%
same,IC50,SK-MEL-28,> 20 µM
same,SK-MEL-28 (% inhibition),SK-MEL-28,88%
C[C@]12CCc3nc(-c4cc(Cl)cc(Cl)c4)sc3C1=CC[C@@H]1[C@@H]2CC[C@]2(C)C(=O)CC[C@@H]12 [II.25],LOX-IMVI (% inhibition),LOX IMVI; resazurin,89%
C[C@]12CCc3nc(-c4ccccc4O)sc3C1=CC[C@@H]1[C@@H]2CC[C@]2(C)C(=O)CC[C@@H]12 [II.11],LOX-IMVI (% inhibition),LOX IMVI; resazurin,35%
"COc1ccccc1Nc1nc2c(s1)CC[C@@]1(C)C2=CC[C@@H]2[C@@H]1CC[C@]1(C)C(=O)CC[C@@H]21 [IIa.15, (1S,2R,13R,14S,18S)-7-(2-methoxyanilino)-2,18-dimethyl-6-thia-8-azapentacyclo[11.7.0.02,10.05,9.014,18]icosa-5(9),7,10-trien-17-one]",SK-MEL-5 (% inhibition),SK-MEL-5,76%
same,SK-MEL-25 (% inhibition),SK-MEL-25; [2],67%
same,SK-MEL-28 (% inhibition),SK-MEL-28,13%
"Cc1ccc(Nc2nc3c(s2)CC[C@@]2(C)C3=CC[C@@H]3[C@@H]2CC[C@]2(C)C(=O)CC[C@@H]32)cc1 [IIa.32, (1S,2R,13R,14S,18S)-2,18-dimethyl-7-(4-methylanilino)-6-thia-8-azapentacyclo[11.7.0.02,10.05,9.014,18]icosa-5(9),7,10-trien-17-one]",IC50,"LOX IMVI; 24 hours, resazurin",9 µM
same,IC50,SK-MEL-25; [1],5 µM
same,SK-MEL-25 (% inhibition),SK-MEL-25; [2],87%
same,IC50,SK-MEL-28,> 20 µM
same,SK-MEL-28 (% inhibition),SK-MEL-28,63%
"COc1cccc(-c2nc3c(s2)C2=CC[C@@H]4[C@H](CC[C@]5(C)C(=O)CC[C@@H]45)[C@@]2(C)CC3)c1 [II.9, (1S,2R,13R,14S,18S)-7-(3-methoxyphenyl)-2,18-dimethol-8-thia-6-azapentacyclo[11.7.0.02,10.05,9.014,18]icosa-5(9),7,10-trien-17-one]",LOX-IMVI (% inhibition),LOX IMVI; resazurin,13%
"COc1ccc(Cl)cc1Nc1nc2c(s1)CC[C@@]1(C)C2=CC[C@@H]2[C@@H]1CC[C@]1(C)C(=O)CC[C@@H]21 [IIa.20, (1S,2R,13R,14S,18S)-7-(5-chloro-2-methoxy-anilino)-2,18-dimethyl-6-thia-8-azapentacyclo[11.7.0.02,10.05,9.014,18]icosa-5(9),7,10-trien-17-one]",SK-MEL-5 (% inhibition),SK-MEL-5,70%
same,SK-MEL-25 (% inhibition),SK-MEL-25; [2],83%
same,SK-MEL-28 (% inhibition),SK-MEL-28,95%
C[C@]12CCc3nc(Cc4ccccc4)sc3C1=CC[C@@H]1[C@@H]2CC[C@]2(C)C(=O)CC[C@@H]12 [II.2],LOX-IMVI (% inhibition),LOX IMVI; resazurin,17%
same,SK-MEL-5 (% inhibition),SK-MEL-5,77%
same,SK-MEL-25 (% inhibition),SK-MEL-25; [2],69%
same,SK-MEL-28 (% inhibition),SK-MEL-28,98%
CCOc1cccc(-c2nc3c(s2)C2=CC[C@@H]4[C@H](CC[C@]5(C)C(=O)CC[C@@H]45)[C@@]2(C)CC3)c1 [II.23],LOX-IMVI (% inhibition),LOX IMVI; resazurin,52%
"C[C@]12CCc3nc(-c4cccc(O)c4)sc3C1=CC[C@@H]1[C@@H]2CC[C@]2(C)C(=O)CC[C@@H]12 [II.17, (1S,2R,13R,14S,18S)-7-(3-hydroxy)-2,18-dimethyl-8-thia-6-azapentacyclo[11.7.0.02,10.05,9.014,18]icosa-5(9),7,10-trien-17-one]",LOX-IMVI (% inhibition),LOX IMVI; resazurin,17%
"C[C@]12CCc3sc(Nc4ccccc4[N+](=O)[O-])nc3C1=CC[C@@H]1[C@@H]2CC[C@]2(C)C(=O)CC[C@@H]12 [IIa.13, (1S,2R,13R,14S,18S)-2,18-dimethyl-7-(2-nitroanilino)-6-thia-8-azapentacyclo[11.7.0.02,10.05,9.014,18]icosa-5(9),7,10-trien-17-one]",SK-MEL-5 (% inhibition),SK-MEL-5,36%
same,SK-MEL-25 (% inhibition),SK-MEL-25; [2],58%
same,SK-MEL-28 (% inhibition),SK-MEL-28,6%
"C[C@]12CCc3sc(Nc4ccccc4F)nc3C1=CC[C@@H]1[C@@H]2CC[C@]2(C)C(=O)CC[C@@H]12 [IIa.33, (1S,2R,13R,14S,18S)-7-(2-fluoroanilino)-2,18-dimethyl-6-thia-8-azapentacyclo[11.7.0.02,10.05,9.014,18]icosa-5(9),7,10-trien-17-one]",SK-MEL-5 (% inhibition),SK-MEL-5,87%
same,SK-MEL-25 (% inhibition),SK-MEL-25; [2],77%
same,SK-MEL-28 (% inhibition),SK-MEL-28,66%
"COc1ccc(OC)c(Nc2nc3c(s2)CC[C@@]2(C)C3=CC[C@@H]3[C@@H]2CC[C@]2(C)C(=O)CC[C@@H]32)c1 [IIa.16, (1S,2R,13R,14S,18S)-7-(2,5-dimethoxyanilino)-2,18-dimethyl-6-thia-8-azapentacyclo[11.7.0.02,10.05,9.014,18]icosa-5(9),7,10-trien-17-one]",SK-MEL-5 (% inhibition),SK-MEL-5,81%
same,SK-MEL-25 (% inhibition),SK-MEL-25; [2],70%
same,SK-MEL-28 (% inhibition),SK-MEL-28,86%
"CC(=O)Nc1nc2c(s1)C1=CC[C@H]3[C@@H]4CC[C@H](O)[C@@]4(C)CC[C@@H]3[C@@]1(C)CC2 [IIIa.37, N-[(1S,2R,13R,14S,17S,18S)-17-hydroxy-2,18-dimethyl-8-thia-6-azapentacyclo[11.7.0.02,10.05,9.014,18]icosa-5(9),6,10-trien-7-yl]acetamide]",MALME-3M (% viability),MALME-3M,104.91%
same,SK-MEL-5 (% viability),SK-MEL-5,48.52%
same,IC50,"SK-MEL-25; SK-MEL-25 melanoma cells (head prints SK-25), read-out: SK-25 IC50",> 20 µM
same,SK-MEL-25 (% viability),SK-MEL-25,39.57%
same,SK-MEL-28 (% viability),SK-MEL-28,62.56%
"C[C@]12CCc3sc(NCc4ccccc4)nc3C1=CC[C@@H]1[C@@H]2CC[C@]2(C)C(=O)CC[C@@H]12 [IIa.5, (1S,2R,13R,14S,18S)-7-(benzylamino)-2,18-dimethyl-6-thia-8-azapentacyclo[11.7.0.02,10.05,9.014,18]icosa-5(9),7,10-trien-17-one]",SK-MEL-5 (% inhibition),SK-MEL-5,46%
same,SK-MEL-25 (% inhibition),SK-MEL-25; [2],6%
same,SK-MEL-28 (% inhibition),SK-MEL-28,97%
